Here are results for 22 compounds from US20230066011A1, “PYRROLOPYRIMIDINE DERIVATIVE, AND PHARMACEUTICAL COMPOSITION FOR PREVENTING OR TREATING PROTEIN KINASE-RELATED DISEASE COMPRISING SAME AS ACTIVE INGREDIENT” (VORONOI CO., LTD., priority 2019, published 2023).

Each structure is given as a SMILES string. Bounds are passed on as bounds.

One test deals with T1, human GST-DYRK1A (Homo sapiens, UniProt Q13627).
T1 construct: purified human GST-DYRK1A (full length, Thermo Scientifics) enzyme; purchased Thermo Scientifics
The experiment in a line: GST-DYRK1A enzyme inhibition, ADP-Glo kinase assay. In kind it is biochemical. Particulars: ATP 10 μM, GST-DYRK1A full length, read-out: DYRK1 IC50. In short, it runs like this:
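Full-length enzyme (10 ng) was incubated with 10 μM ATP and a specific substrate for 1 h at 25 °C in 40 mM Tris-HCl pH 7.4, 20 mM MgCl2, 0.5 mg/mL BSA, 50 μM DTT. Luminescence was read against a solvent control, and IC50 values were derived from 3 data sets.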
(In ADP-Glo the light output rises with the ADP produced.)

For another test, the target named is T2, human GST-CLK1 (Homo sapiens, UniProt P49759).
T2 construct: purified human GST-CLK1 (129-end, SignalChem) enzyme; purchased SignalChem
T2 sequence (P49759 129-484 limits assumed): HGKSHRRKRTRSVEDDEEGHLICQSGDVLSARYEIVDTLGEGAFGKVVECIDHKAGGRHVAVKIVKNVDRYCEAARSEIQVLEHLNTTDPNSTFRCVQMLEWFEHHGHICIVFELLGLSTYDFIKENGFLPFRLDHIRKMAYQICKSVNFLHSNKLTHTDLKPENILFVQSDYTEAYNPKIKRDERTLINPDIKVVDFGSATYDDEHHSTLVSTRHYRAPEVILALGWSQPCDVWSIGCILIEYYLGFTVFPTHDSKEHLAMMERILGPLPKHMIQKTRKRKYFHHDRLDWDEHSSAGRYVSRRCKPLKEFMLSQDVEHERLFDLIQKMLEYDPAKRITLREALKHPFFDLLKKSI
The test can be described thus: GST-CLK1 enzyme inhibition, ADP-Glo kinase assay. In kind it is biochemical. Particulars: ATP 10 μM, GST-CLK1 129-end. In short, it runs like this:
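ADP-Glo luminescence read-out, relative to untreated solvent control, gave IC50 (nM) from triplicate data sets. Reactions ran an hour at 25° C with 3 ng GST-CLK1 (residues 129-end), 10 μM ATP and specific substrate in Tris-HCl pH 7.4 buffer with MgCl2, BSA and DTT.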

Regarding `CCNc1nc(Nc2ccc(C(=O)N3CCN(C4COC4)CC3)c3c2OCCO3)nc2[nH]cc(C#N)c12` [Example 281, 4-(ethylamino)-2-((8-(4-(oxetan-3-yl)piperazine-1-carobnyl)-2,3-dihydrobenzo[b][1,4]dioxin-5-yl)amino)-7H-pyrrolo[2,3-d]pyrimidine-5-carbonitrile], the IC50 (as a rule, the point on the concentration scale where inhibition reaches its midpoint) at human GST-DYRK1A is 101 to 300 nM; against human GST-CLK1, under 100 nM.
As to `COc1cc(S(C)(=O)=O)ccc1Nc1nc(NCC2CCCC2)c2c(C(F)(F)F)c[nH]c2n1` [Example 206, N^4-(cyclopentylmethyl)-N^2-(2-methoxy-4-(methylsulfonyl)phenyl)-5-(trifluoromethyl)-7H-pyrrolo[2,3-d]pyrimidine-2,4-diamine], the IC50 at human GST-DYRK1A and against human GST-CLK1 was 301 to 1000 nM throughout.
For the compound `CNc1nc(Nc2ccc(P(C)(C)=O)cc2OC)nc2[nH]cc(C#N)c12` [Example 253, 2-((4-(dimethylphosphoryl)-2-methoxyphenyl)amino)-4-(methylamino)-7H-pyrrolo[2,3-d]pyrimidine-5-carbonitrile], the IC50 on human GST-DYRK1A and on human GST-CLK1 was 301 to 1000 nM throughout.
With `COc1cc(P2(=O)CCN(C3CC3)CC2)ccc1Nc1nc(N[C@H]2CCOC2)c2c(C#N)c[nH]c2n1` [Example 300, (S)-2-((4-(1-cyclopropyl-4-oxido-1,4-azaphosphinan-4-yl)-2-methoxyphenyl)a-mino)-4-((tetrahydrofuran-3-yl)amino)-7H-pyrrolo[2,3-d]pyrimidine-5-carbonitrile], the IC50 at human GST-DYRK1A was 301 to 1000 nM; at human GST-CLK1, under 100 nM.
Turning to `CCCNc1nc(Nc2ccc(C(=O)N3CCN(C4COC4)CC3)c3c2OCCO3)nc2[nH]cc(C#N)c12` [Example 284, 2-((8-(4-(oxetan-3-yl)piperazine-1-carbonyl)-2,3-dihydrobenzo[b] [1,4]dioxin-5-yl)amino)-4-(propylamino)-7H-pyrrolo[2,3-d]pyrimidine-5-carbonitrile], the IC50 at human GST-DYRK1A is 301 to 1000 nM; against human GST-CLK1, under 100 nM.
On to `COc1cc(S(C)(=O)=O)ccc1Nc1nc(NCC2CCC2)c2c(C(F)(F)F)c[nH]c2n1` [Example 198, N^4-(cyclobutylmethyl)-N^2-(2-methoxy-4-(methylsulfonyl)phenyl)-5-(trifluoromethyl)-7H-pyrrolo[2,3-d]pyrimidine-2,4-diamine], for which the IC50 on human GST-DYRK1A and at human GST-CLK1 was 301 to 1000 nM in each case.
`N#Cc1c[nH]c2nc(Nc3ccc(C(=O)N4CCC(N5CCOCC5)CC4)c4c3OCCO4)nc(NC3CCCCC3)c12` [Example 142, 4-(cyclohexylamino)-2-((8-(4-morpholinopiperidine-1-carbonyl)-2,3-dihydrobenzo[b][1,4]dioxin-5-yl)amino)-7H-pyrrolo[2,3-d]pyrimidine-5-carbonitrile]: the IC50 at human GST-DYRK1A is 301 to 1000 nM; on human GST-CLK1, under 100 nM.
On to `COc1cc(P(C)(C)=O)ccc1Nc1nc(NC2COC2)c2c(C#N)c[nH]c2n1` [Example 276, 2-((4-(dimethylphosphoryl)-2-methoxyphenyl)amino)-4-(oxetan-3-ylamino)-7H-pyrrolo[2,3-d]pyrimidine-5-carbonitrile], for which the IC50 on human GST-DYRK1A and at human GST-CLK1 was 301 to 1000 nM throughout.
`CC[C@H](C)Nc1nc(Nc2ccc(P3(=O)CCN(C4COC4)CC3)cc2OC)nc2[nH]cc(C#N)c12` [Example 297, (S)-4-(sec-butylamino)-2-((2-methoxy-4-(1-(oxetan-3-yl)-4-oxido-1,4-azaphosphinan-4-yl)phenyl)amino)-7H-pyrrolo[2,3-d]pyrimidine-5-carbonitrile]: the IC50 on human GST-DYRK1A was 301 to 1000 nM; against human GST-CLK1 it was 101 to 300 nM.
With `N#Cc1c[nH]c2nc(Nc3ccc(C(=O)N4CC(CO)(CO)C4)c4c3OCCO4)nc(NC3CCC3)c12` [Example 333, 2-((8-(3,3-bis (hydroxymethyl)azetidine-1-carbonyl)-2,3-dihydrobenzo[b] [1,4]dioxin-5-yl)amino)-4-(cyclobutyl-amino)-7H-pyrrolo[2,3-d]pyrimidine-5-carbonitrile], the results for the IC50 on human GST-DYRK1A and against human GST-CLK1 were 301 to 1000 nM and under 100 nM, respectively.
For the compound `N#Cc1c[nH]c2nc(Nc3ccc(C(=O)N4CCOCC4)c4c3OCCO4)nc(NC3CCOCC3)c12` [Example 129, 2-((8-(morpholine-4-carbonyl)-2,3-dihydrobenzo[b][1,4]dioxin-5-yl)amino)-4-((tetrahydro-2H-pyran-4-yl)amino)-7H-pyrrolo[2,3-d]pyrimidine-5-carbonitrile], the IC50 at human GST-DYRK1A and against human GST-CLK1 was 301 to 1000 nM in each case.
With `COCCNc1nc(Nc2ccc(S(=O)(=O)N3CCC(N4CCOCC4)CC3)cc2OC)nc2[nH]cc(C(N)=O)c12` [Example 233, 2-((2-methoxy-4-((4-morpholinopiperidin-1-yl)sulfonyl)phenyl)amino)-4-((2-methoxyethyl)amino)-7H-pyrrolo[2,3-d]pyrimdiine-5-carboxamide], the 50% inhibitory concentration (IC50) at human GST-DYRK1A and at human GST-CLK1 was 301 to 1000 nM in each case.
As for `N#Cc1c[nH]c2nc(Nc3ccc(C(=O)N4CC(CO)(CO)C4)c4c3OCCO4)nc(NCC3CCCC3)c12` [Example 340, 2-((8-(3,3-bis (hydroxymethyl)azetidine-1-carbonyl)-2,3-dihydrobenzo [b][1,4]dioxin-5-yl)amino)-4-((cyclopentyl-methyl)amino)-7H-pyrrolo[2,3-d]pyrimidine-5-carbonitrile], the IC50 on human GST-DYRK1A is 301 to 1000 nM; against human GST-CLK1, under 100 nM.
On to `CCNc1nc(Nc2ccc(C(=O)N3CCOCC3)c3c2OCC3)nc2[nH]cc(C#N)c12` [Example 346, 4-(ethylamino)-2-((4-(morpholine-4-carbonyl)-2,3-dihydrobenzo-furan-7-yl)amino)-7H-pyrrolo[2,3-d]pyrimidine-5-carbonitrile], for which the IC50 was 101 to 300 nM on human GST-DYRK1A and under 100 nM at human GST-CLK1.
In the case of `COc1cc(P(C)(C)=O)ccc1Nc1nc(NC2CC2)c2c(C#N)c[nH]c2n1` [Example 116, 4-(cyclopropylamino)-2-((4-(dimethylphosphoryl)-2-methoxyphenyl)amino)-7H-pyrrolo[2,3-d]pyrimidine-5-carbonitrile], the IC50 at human GST-DYRK1A is 301 to 1000 nM; at human GST-CLK1 it was under 100 nM.
In the same order, the values of `COc1cc(P2(=O)CCN(C3CC3)CC2)ccc1Nc1nc(NC(C)C)c2c(C#N)c[nH]c2n1` [Example 292, 2-((4-(1-cyclopropyl-4-oxido-1,4-azaphosphinan-4-yl)-2-methoxyphenyl)a-mino)-4-(isopropylamino)-7H-pyrrolo[2,3-d]pyrimidine-5-carbonitrile] are 301 to 1000 nM and under 100 nM.
As to `COc1cc(P(C)(C)=O)ccc1Nc1nc(NC2CCC2)c2c(C(F)(F)F)c[nH]c2n1` [Example 386, (4-((4-(cyclo-butylamino)-5-(trifluoromethyl)-7H-pyrrolo[2,3-d]pyrimidin-2-yl)amino)-3-methoxyphenyl) dimethyl phosphine oxide], the IC50 at human GST-DYRK1A and on human GST-CLK1 was 301 to 1000 nM each time.
In the case of `N#Cc1c[nH]c2nc(Nc3ccc(C(=O)N4CCOCC4)c4c3OCC4)nc(NCC3CCCC3)c12` [Example 342, 4-((cyclo-pentylmeth-yl)amino)-2-((4-(morpholine-4-carbonyl)-2,3-dihydrobenzo-furan-7-yl)amino)-7H-pyrrolo[2,3-d]pyrimidine-5-carbonitrile], the IC50 at human GST-DYRK1A and against human GST-CLK1 was 301 to 1000 nM throughout.
For `N#Cc1c[nH]c2nc(Nc3ccc(C(=O)N4CC(CO)(CO)C4)c4c3OCCO4)nc(NC3CCCC3)c12` [Example 334, 2-((8-(3,3-bis (hydroxymethyl)azetidine-1-carbonyl)-2,3-dihydrobenzo[b] [1,4]dioxin-5-yl)amino)-4-(cyclopentyl-amino)-7H-pyrrolo[2,3-d]pyrimidine-5-carbonitrile], the IC50 at human GST-DYRK1A was 301 to 1000 nM; against human GST-CLK1, under 100 nM.
For `O=C(c1ccc(Nc2nc(NCC3CCC3)c3c(C(F)(F)F)c[nH]c3n2)c2c1CCO2)N1CCC(N2CCOCC2)CC1` [Example 462, (7-((4-((cyclo-butylmethyl)amino)-5-(trifluoromethyl)-7H-pyrrolo[2,3-d]pyrimidin-2-yl)amino)-2,3-dihydrobenzo-furan-4-yl)(4-morpho-linopiperidin-1-yl)methanone], the IC50 at human GST-DYRK1A was in the range of 101 to 300 nM; against human GST-CLK1 it was 301 to 1000 nM.
In the same order, the values of `O=C(c1ccc(Nc2nc(NCC3CCCC3)c3c(C(F)(F)F)c[nH]c3n2)c2c1OCCO2)N1CCOCC1` [Example 205, (8-((4-((cyclopentylmethyl)amino)-5-(trifluoromethyl)-7H-pyrrolo[2,3-d]pyrimidin-2-yl)amino)-2,3-dihydrobenzo[b][1,4]dioxin-5-yl)(morpholino)methanone] are 301 to 1000 nM and 301 to 1000 nM.
In the same order, the values of `CNc1nc(Nc2ccc(P3(=O)CCN(C4CC4)CC3)cc2OC)nc2[nH]cc(C#N)c12` [Example 279, 2-((4-(1-cyclopropyl-4-oxido-1,4-azaphosphinan-4-yl)-2-methoxyphenyl)amino)-4-(methylamino)-7H-pyrrolo[2,3-d]pyrimidine-5-carbonitrile] are 301 to 1000 nM and 301 to 1000 nM.
